Assay results reported in ChEMBL document CHEMBL3785046, “Synthesis, in vitro and in vivo evaluation of novel substituted N-(4-(2-(4-benzylpiperazin-1-yl)ethoxy)phenyl)-N-methyl-quinazolin-4-amines as potent antitumor agents” (Bioorg Med Chem Lett, 2016).
Active and inactive are the calls of the source. No cut-off for these calls is given here.

Assays:
A549 = assay: Antiproliferative activity against human A549 cells after 24 hrs by MTT assay; assay type: functional, cell-based; conditions: A549, 24 h
HepG2 [1] = assay: Antiproliferative activity against human HepG2 cells after 24 hrs by MTT assay; assay type: functional, cell-based; conditions: HepG2, 24 h
[2] = Antiproliferative activity against human SW620 cells after 24 hrs by MTT assay; assay type: functional, cell-based; conditions: SW-620, 24 h
MCF7 = assay: Antiproliferative activity against human MCF7 cells after 24 hrs by MTT assay; assay type: functional, cell-based; conditions: MCF7, 24 h
HepG2 [3] = assay: Induction of apoptosis in human HepG2 cells assessed as upregulation of cleaved PARP levels after 48 hrs by Western blot analysis; assay type: functional, cell-based
HepG2 [4] = assay: Cell cycle arrest in human HepG2 cells assessed as accumulation at S phase at 500 nM after 24 hrs by propidium iodide staining based flow cytometry (reference value: 39%); assay type: functional
Mus musculus [5] = assay: Toxicity in nude mouse xenografted with human HepG2 cells assessed as feeding at 10 mg/kg, iv administered every 2 days for 31 days; assay type: organism-based; conditions: in vivo
HepG2 [6] = assay: Downregulation of Cdc25C in human HepG2 cells at 10 to 100 nM after 24 hrs by Western blot analysis; assay type: functional, cell-based
HepG2 [7] = assay: Antitumor activity against human HepG2 cells xenografted with nude mouse assessed as tumor weight at 10 mg/kg, iv administered every 2 days for 31 days; assay type: functional
HepG2 [8] = assay: Cell cycle arrest in human HepG2 cells assessed as accumulation at S phase at 200 nM after 24 hrs by propidium iodide staining based flow cytometry (reference value: 39%); assay type: functional
HepG2 [9] = assay: Cell cycle arrest in human HepG2 cells assessed as accumulation at G1 phase at 200 nM after 24 hrs by propidium iodide staining based flow cytometry (reference value: 42%); assay type: functional
HepG2 [10] = assay: Induction of apoptosis in human HepG2 cells assessed as upregulation of cleaved caspase-3 levels at 0.5 uM after 48 hrs by Western blot analysis; assay type: functional, cell-based
HepG2 [11] = assay: Cell cycle arrest in human HepG2 cells assessed as accumulation at G2/M phase at 500 nM after 24 hrs by propidium iodide staining based flow cytometry (reference value: 19%); assay type: functional
HepG2 [12] = assay: Cell cycle arrest in human HepG2 cells assessed as accumulation at G2/M phase at 100 nM after 24 hrs by propidium iodide staining based flow cytometry (reference value: 19%); assay type: functional
HepG2 [13] = assay: Binding affinity to alpha tubulin in human HepG2 cells assessed as disruption of microtubule at 1 uM after 24 hrs by immunofluorescence staining based microscopy; assay type: cell-based
HepG2 [14] = assay: Cell cycle arrest in human HepG2 cells assessed as accumulation at G2/M phase at 200 nM after 24 hrs by propidium iodide staining based flow cytometry (reference value: 19%); assay type: functional
HepG2 [15] = assay: Downregulation of Cdk1 in human HepG2 cells at 10 to 100 nM after 24 hrs by Western blot analysis; assay type: functional, cell-based
HepG2 [16] = assay: Cell cycle arrest in human HepG2 cells assessed as accumulation at G1 phase at 100 nM after 24 hrs by propidium iodide staining based flow cytometry (reference value: 42%); assay type: functional
HepG2 [17] = assay: Antitumor activity against human HepG2 cells xenografted with nude mouse assessed as tumor mass change at 10 mg/kg, iv administered every 2 days for 31 days; assay type: functional
HepG2 [18] = assay: Cell cycle arrest in human HepG2 cells assessed as accumulation at G2/M phase after 24 hrs by propidium iodide staining based flow cytometry (reference value: 19%); assay type: functional
HepG2 [19] = assay: Cell cycle arrest in human HepG2 cells assessed as accumulation at S phase at 100 nM after 24 hrs by propidium iodide staining based flow cytometry (reference value: 39%); assay type: functional
HepG2 [20] = assay: Antitumor activity against human HepG2 cells xenografted with nude mouse assessed as tumor volume at 10 mg/kg, iv administered every 2 days for 31 days (reference value: 87.39 +/- 3.529 mm3); assay type: functional
HepG2 [21] = assay: Cell cycle arrest in human HepG2 cells assessed as accumulation at G1 phase at 500 nM after 24 hrs by propidium iodide staining based flow cytometry (reference value: 42%); assay type: functional
HepG2 [22] = assay: Upregulation of phosphorylated histone H3 levels in human HepG2 cells at 10 to 100 nM after 24 hrs by Western blot analysis; assay type: functional, cell-based
Mus musculus [23] = assay: Toxicity in nude mouse xenografted with human HepG2 cells assessed as abnormal behavior at 10 mg/kg, iv administered every 2 days for 31 days; assay type: organism-based; conditions: in vivo
HepG2 [24] = assay: Induction of apoptosis in human HepG2 cells assessed as upregulation of cleaved PARP levels at 0.5 uM after 48 hrs by Western blot analysis; assay type: functional, cell-based
HepG2 [25] = assay: Induction of apoptosis in human HepG2 cells assessed as upregulation of cleaved caspase-3 levels after 48 hrs by Western blot analysis; assay type: functional, cell-based
Mus musculus [26] = assay: Toxicity in nude mouse xenografted with human HepG2 cells assessed as weight loss at 10 mg/kg, iv administered every 2 days for 31 days; assay type: organism-based; conditions: in vivo
HepG2 [27] = assay: Upregulation of cyclin B1 in human HepG2 cells at 10 to 100 nM after 24 hrs by Western blot analysis; assay type: functional, cell-based
HepG2 [28] = assay: Antitumor activity against human HepG2 cells xenografted with nude mouse assessed as tumor volume at 5 mg/kg, iv administered every 2 days for 31 days (reference value: 103.6 +/- 1.77 mm3); assay type: functional
HepG2 [29] = assay: Antitumor activity against human HepG2 cells xenografted with nude mouse assessed as tumor weight at 5 mg/kg, iv administered every 2 days for 31 days; assay type: functional

For `CN(c1ccc(OCCN2CCN(Cc3ccc(C(C)(C)C)cc3)CC2)cc1)c1nc(Cl)nc2ccccc12`, the IC50 (A549) was > 10000 nM, the IC50 (HepG2 [1]) was > 10000 nM and the IC50 [2] was > 10000 nM. For the same compound, the IC50 (MCF7) was > 10000 nM.
`Cc1nc(N(C)c2ccc(OCCN3CCN(Cc4ccccc4C#N)CC3)cc2)c2ccccc2n1` gave an IC50 (A549) of 5740 nM, an IC50 (HepG2 [1]) of 890 nM and an IC50 [2] of 883 nM. For the same compound, the IC50 (MCF7) was 1010 nM.
With `Cc1nc(N(C)c2ccc(OCCN3CCN(Cc4ccc(C(C)(C)C)cc4)CC3)cc2)c2ccccc2n1` the IC50 (A549) was > 10000 nM, the IC50 (HepG2 [1]) was > 10000 nM and the IC50 [2] was > 10000 nM. The IC50 (MCF7) was > 10000 nM.
For `Cc1nc(N(C)c2ccc(OCCN3CCN(Cc4ccccc4F)CC3)cc2)c2ccccc2n1`, the IC50 (A549) was 281 nM, the IC50 (HepG2 [1]) was 89 nM and the IC50 [2] was 716 nM. The IC50 (MCF7) was 690 nM.
In the case of `CN(c1ccc(OCCN2CCN(Cc3ccccc3F)CC2)cc1)c1nc(Cl)nc2ccccc12`, the Activity (HepG2 [3]) is reported as “Dose-dependent effect”, the Activity (HepG2 [4]) is reported as 23% and the Activity (Mus musculus [5]) is reported as “Non-toxic”. The Activity (HepG2 [6]) was “Active”, the Activity (HepG2 [7]) was 0.217 g and the Activity (HepG2 [8]) was 26%. The Activity (HepG2 [9]) was 30%, the IC50 (A549) was 147 nM and the IC50 (HepG2 [1]) was 29 nM. The Activity (HepG2 [10]) was “Active”, the Activity (HepG2 [11]) was 67% and the Activity (HepG2 [12]) was 25%. The Activity (HepG2 [13]) was “Active”, the Activity (HepG2 [14]) was 44% and the Activity (HepG2 [15]) was “Active”. The Activity (HepG2 [16]) was 38%, the Activity (HepG2 [17]) was 78.69% and the Activity (HepG2 [18]) was “Dose-dependent effect”. For the same compound, the Activity (HepG2 [19]) was 37%, the Activity (HepG2 [20]) was 259.78 mm3 and the Activity (HepG2 [21]) was 10%. For the same compound, the Activity (HepG2 [22]) was “Active”, the Activity (Mus musculus [23]) was “Non-toxic” and the IC50 [2] was 52 nM. For the same compound, the Activity (HepG2 [24]) was “Active”, the IC50 (MCF7) was 99 nM and the Activity (HepG2 [25]) was “Dose-dependent effect”. For the same compound, the Activity (Mus musculus [26]) was “Non-toxic” and the Activity (HepG2 [27]) was “Active”.
`Cc1nc(N(C)c2ccc(OCCN3CCN(Cc4ccccc4Cl)CC3)cc2)c2ccccc2n1` gave an IC50 (A549) of 872 nM, an IC50 (HepG2 [1]) of 555 nM and an IC50 [2] of 2920 nM. It also gave an IC50 (MCF7) of 2320 nM.
With `Cc1nc(N(C)c2ccc(OCCN3CCN(Cc4ccccc4Br)CC3)cc2)c2ccccc2n1` the IC50 (A549) was > 10000 nM, the IC50 (HepG2 [1]) was 441 nM and the IC50 [2] was 1230 nM. For the same compound, the IC50 (MCF7) was 2160 nM.
For `CN(c1ccc(OCCN2CCN(Cc3ccc(F)c(F)c3)CC2)cc1)c1nc(Cl)nc2ccccc12`, the IC50 (A549) was 1560 nM, the IC50 (HepG2 [1]) was 1310 nM and the IC50 [2] was 892 nM. It also gave an IC50 (MCF7) of 2340 nM.
`CN(c1ccc(OCCN2CCN(Cc3c(F)cccc3F)CC2)cc1)c1nc(Cl)nc2ccccc12` gave an IC50 (A549) of 6350 nM, an IC50 (HepG2 [1]) of 1450 nM and an IC50 [2] of 3210 nM. For the same compound, the IC50 (MCF7) was 1980 nM.
`COc1cccc2c1C(=O)c1c(O)c3c(c(O)c1C2=O)C[C@@](O)(C(=O)CO)C[C@@H]3O[C@H]1C[C@H](N)[C@H](O)[C@H](C)O1.Cl` [DOXORUBICIN HYDROCHLORIDE] showed an Activity (HepG2 [28]) of 238.7 mm3 and an Activity (HepG2 [29]) of 0.188 g.
In the case of `Cc1nc(N(C)c2ccc(OCCN3CCN(Cc4ccc(F)c(F)c4)CC3)cc2)c2ccccc2n1`, the IC50 (A549) is reported as > 10000 nM, the IC50 (HepG2 [1]) is reported as 6580 nM and the IC50 [2] is reported as 3270 nM. For the same compound, the IC50 (MCF7) was 6120 nM.
Work on `CN(c1ccc(OCCN2CCN(Cc3ccccc3Cl)CC2)cc1)c1nc(Cl)nc2ccccc12` yielded an IC50 (A549) of 371 nM, an IC50 (HepG2 [1]) of 650 nM and an IC50 [2] of 980 nM. It also gave an IC50 (MCF7) of 1230 nM.
